Test results reported in PubChem BioAssay AID248 (DTP/NCI, 2004).
Values joined by “and” are separate entries in the source; they are usually repeats but may differ in a detail not shown here. Identical values can stand only once. Inconclusive results and toxic doses are left out. No stated cut-off is given here; in the data, active means T/C of 150% or more; inactive means T/C below 125%.

System: L1210 leukemia ip in BDF1 mice, survival T/C
Experiment: NCI In Vivo Anticancer Drug Screen. Data for tumor model L1210 Leukemia (intraperitoneal) in B6D2F1 (BDF1) mice
Settings: endpoint: mean survival time, higher = longer survival
Outline: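 Tumor cells were implanted, animals were treated, and survival was followed. The result divides the treated measurement by the vehicle-control measurement.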

[1] = dose: 100.0 mg/kg/injection, schedule: Q01DX009 (ip), vehicle: saline with Tween-80
[2] = dose: 100.0 mg/kg/injection, schedule: Q04DX003 (ip), vehicle: saline with Tween-80
[3] = dose: 200.0 mg/kg/injection, schedule: Q01DX009 (ip), vehicle: saline with Tween-80
[4] = dose: 200.0 mg/kg/injection, schedule: Q04DX003 (ip), vehicle: saline with Tween-80
[5] = dose: 400.0 mg/kg/injection, schedule: Q01DX009 (ip), vehicle: saline with Tween-80
[6] = dose: 400.0 mg/kg/injection, schedule: Q04DX003 (ip), vehicle: saline with Tween-80
[7] = dose: 100.0 mg/kg/injection, schedule: Q01DX001 (ip), vehicle: carboxymethylcellulose (CMC)
[8] = dose: 200.0 mg/kg/injection, schedule: Q01DX001 (ip), vehicle: carboxymethylcellulose (CMC)
[9] = dose: 400.0 mg/kg/injection, schedule: Q01DX001 (ip), vehicle: carboxymethylcellulose (CMC)
[10] = dose: 50.0 mg/kg/injection, schedule: Q01DX009 (ip), vehicle: Klucel (hydroxypropylcellulose) (HPC)
[11] = dose: 50.0 mg/kg/injection, schedule: Q04DX003 (ip), vehicle: Klucel (hydroxypropylcellulose) (HPC)
[12] = dose: 100.0 mg/kg/injection, schedule: Q01DX009 (ip), vehicle: Klucel (hydroxypropylcellulose) (HPC)
[13] = dose: 100.0 mg/kg/injection, schedule: Q04DX003 (ip), vehicle: Klucel (hydroxypropylcellulose) (HPC)
[14] = dose: 200.0 mg/kg/injection, schedule: Q01DX009 (ip), vehicle: Klucel (hydroxypropylcellulose) (HPC)
[15] = dose: 100.0 mg/kg/injection, schedule: Q01DX001 (ip), vehicle: Klucel (hydroxypropylcellulose) (HPC)
[16] = dose: 200.0 mg/kg/injection, schedule: Q01DX001 (ip), vehicle: Klucel (hydroxypropylcellulose) (HPC)
[17] = dose: 200.0 mg/kg/injection, schedule: Q04DX003 (ip), vehicle: Klucel (hydroxypropylcellulose) (HPC)
[18] = dose: 25.0 mg/kg/injection, schedule: Q01DX009 (ip), vehicle: saline with Tween-80
[19] = dose: 50.0 mg/kg/injection, schedule: Q01DX009 (ip), vehicle: saline with Tween-80
[20] = dose: 400.0 mg/kg/injection, schedule: Q04DX003 (ip), vehicle: Klucel (hydroxypropylcellulose) (HPC)

Measured: T/C

Oc1ccc(C=Nc2ccccc2N=Cc2ccc(O)c(O)c2)cc1O
inactive: [1] 105 % of control | [2] 100 % of control | [3] 100 % of control | [4] 96 % of control | [5] 100 % of control | [6] 91 % of control

CCOc1ccccc1C(=O)Nc1ccc(Br)cc1
inactive: dose: 50.0 mg/kg/injection, schedule: Q01DX001 (ip), vehicle: carboxymethylcellulose (CMC) 91 % of control | [7] 91 % of control | [8] 96 % of control | [9] 102 % of control

CCOC(=O)CNC(=O)C(CSSCC(NC(=O)OCc1ccccc1)C(=O)NCC(=O)OCC)NC(=O)OCc1ccccc1 (centres undefined)
inactive: dose: 25.0 mg/kg/injection, schedule: Q04DX003 (ip), vehicle: Klucel (hydroxypropylcellulose) (HPC) 95 % of control | [10] 100 % of control | [11] 104 % of control | [12] 103 % of control | [13] 104 % of control and 90 % of control | [14] 92 % of control

Cc1cccc(C(O)C(=O)O)c1 (centres undefined)
inactive: dose: 75.0 mg/kg/injection, schedule: Q01DX001 (ip), vehicle: acetone 94 % of control | dose: 150.0 mg/kg/injection, schedule: Q01DX001 (ip), vehicle: acetone 92 % of control

Cc1[nH]c(=S)[nH]c(=O)c1CN(CCO)CCO
inactive: dose: 50.0 mg/kg/injection, schedule: Q01DX001 (ip), vehicle: Klucel (hydroxypropylcellulose) (HPC) 123 % of control | [10] 96 % of control | [11] 108 % of control | [15] 101 % of control | [12] 101 % of control | [13] 102 % of control | [16] 101 % of control | [14] 123 % of control | [17] 91 % of control

C[P+]1(C)CC2OC23CCCCC31 (centres undefined)
inactive: dose: 12.5 mg/kg/injection, schedule: Q01DX009 (ip), vehicle: saline 98 % of control | dose: 25.0 mg/kg/injection, schedule: Q01DX009 (ip), vehicle: saline 93 % of control | dose: 50.0 mg/kg/injection, schedule: Q01DX009 (ip), vehicle: saline 94 % of control | dose: 100.0 mg/kg/injection, schedule: Q01DX009 (ip), vehicle: saline 96 % of control

CCn1c(=S)[nH]c(=O)c2n[nH]nc21
inactive: [2] 88 % of control | [4] 89 % of control | [6] 93 % of control

O=C(/C(=C\c1ccccc1)CO)c1ccccc1
inactive: dose: 12.5 mg/kg/injection, schedule: Q01DX009 (ip), vehicle: saline with Tween-80 89 % of control | [18] 89 % of control | [19] 87 % of control | dose: 62.0 mg/kg/injection, schedule: Q01DX009 (ip), vehicle: saline with Tween-80 106 % of control

CC1(c2ccccc2O)Nc2ccccc2S1 (centres undefined)
inactive: [2] 92 % of control | [4] 92 % of control | [6] 96 % of control

CN(CCCN1C(=O)c2ccccc2C1=O)c1ccc(NS(=O)(=O)c2ccc([N+](=O)[O-])cc2)cc1
inactive: [15] 100 % of control | [16] 103 % of control | dose: 400.0 mg/kg/injection, schedule: Q01DX001 (ip), vehicle: Klucel (hydroxypropylcellulose) (HPC) 97 % of control

O=C(O)c1ccc(C(Cl)(Cl)Cl)cc1
inactive: dose: 50.0 mg/kg/injection, schedule: Q01DX009 (ip), vehicle: saline sonified 96 % of control | dose: 100.0 mg/kg/injection, schedule: Q01DX009 (ip), vehicle: saline sonified 115 % of control | [13] 102 % of control | dose: 200.0 mg/kg/injection, schedule: Q01DX009 (ip), vehicle: saline sonified 118 % of control | [17] 94 % of control

O=C(Cl)C1(Br)CC2c3ccccc3C1([N+](=O)[O-])c1ccccc12 (centres undefined)
inactive: [12] 88 % of control | [13] 108 % of control | [14] 91 % of control | [17] 95 % of control | dose: 400.0 mg/kg/injection, schedule: Q01DX009 (ip), vehicle: Klucel (hydroxypropylcellulose) (HPC) 96 % of control | [20] 104 % of control

O=C(COc1cccc(Cl)c1)Nc1ccccc1S(=O)(=O)F
inactive: dose: 100.0 mg/kg/injection, schedule: Q04DX003 (ip), vehicle: other 89 % of control | dose: 200.0 mg/kg/injection, schedule: Q04DX003 (ip), vehicle: other 87 % of control | dose: 400.0 mg/kg/injection, schedule: Q04DX003 (ip), vehicle: other 98 % of control

c1ccc([Si](O[O][Ge]([c]2ccccc2)([c]2ccccc2)[c]2ccccc2)(c2ccccc2)c2ccccc2)cc1
inactive: [13] 93 % of control | [17] 86 % of control | [20] 89 % of control

COc1ccc(NC(=O)CCN2CC2)cc1
inactive: dose: 12.5 mg/kg/injection, schedule: Q01DX001 (ip), vehicle: saline 105 % of control | dose: 25.0 mg/kg/injection, schedule: Q01DX001 (ip), vehicle: saline 97 % of control | [18] 103 % of control | dose: 50.0 mg/kg/injection, schedule: Q01DX001 (ip), vehicle: saline 103 % of control | [19] 95 % of control | dose: 100.0 mg/kg/injection, schedule: Q01DX001 (ip), vehicle: alcohol 93 % of control | [1] 91 % of control | dose: 200.0 mg/kg/injection, schedule: Q01DX001 (ip), vehicle: alcohol 86 % of control

O=C1OC(c2ccccc2)(c2ccccc2)c2ccc3ccccc3c21
inactive: [1] 98 % of control | [3] 103 % of control | [5] 98 % of control

CCOC(=O)c1cnc(SC)nc1Nc1c(Cl)cccc1Cl
inactive: [2] 96 % of control | [4] 94 % of control | [6] 94 % of control

CCCCC(CCCC)NC(C)COC(=O)c1ccc(N)cc1 (centres undefined)
inactive: dose: 75.0 mg/kg/injection, schedule: Q01DX001 (ip), vehicle: carboxymethylcellulose (CMC) 104 % of control | dose: 150.0 mg/kg/injection, schedule: Q01DX001 (ip), vehicle: carboxymethylcellulose (CMC) 100 % of control | dose: 300.0 mg/kg/injection, schedule: Q01DX001 (ip), vehicle: carboxymethylcellulose (CMC) 101 % of control

OC1(c2ccccc2)CC2CC1c1ccccc12 (centres undefined)
inactive: [7] 111 % of control | [8] 93 % of control | [9] 90 % of control

Cc1ccc(S(=O)(=O)Nc2ccc3ncccc3c2[N+](=O)[O-])cc1
inactive: dose: 100.0 mg/kg/injection, schedule: Q01DX001 (ip), vehicle: saline 94 % of control | dose: 200.0 mg/kg/injection, schedule: Q01DX001 (ip), vehicle: saline 93 % of control | dose: 400.0 mg/kg/injection, schedule: Q01DX001 (ip), vehicle: saline 98 % of control
